Data taken from patent US7132252B2, “Methods for detecting the interaction of compounds with cytochrome P450 using optical molecular sensors” (Invitrogen Corporation, priority 1998, dated 2006).
Blank lines part the entries; values can stand above or below the molecule they belong to.

Key:
CYP3A4 [1] = molecular target: T1, CYP3A4 (Homo sapiens, UniProt P08684); assay: Rate of hydroxylation of BOM-09B by CYP 3A4; type: biochemical
Description: The racemic compound mixture (designated BOM-09B) was tested for activity with cytochrome P450 isozymes. […] The CYP 3A4 assay was performed in a 96-well plate at 37° C. in a volume of 100 μL/well. BOM-09B was diluted from a stock solution of 1 mM in acetonitrile to a 4×concentration of 80 μM in 100 mM K+ phosphate buffer of which 25 μl was added to the appropriate wells. […] The cytochrome P450 isozyme CYP3A4 was diluted to give a 2 pmol enzyme per well. Enzymic conversion of the substrate to products was allowed to proceed for 1 hour with fluorescence reads taken every 4 minutes on a fluorescence microtiter plate reader. The solution was illuminated with an 395/25 nm excitation filter and fluorescence emission was detected through a 460/40 nm the emission filter.

CYP2D6 = CYP2D6 (Homo sapiens, UniProt P10635); assay: Apparent inhibition constants of drugs for CYP 2D6 with MOBFC as sensor
Sequence of CYP2D6 (P10635 whole entry): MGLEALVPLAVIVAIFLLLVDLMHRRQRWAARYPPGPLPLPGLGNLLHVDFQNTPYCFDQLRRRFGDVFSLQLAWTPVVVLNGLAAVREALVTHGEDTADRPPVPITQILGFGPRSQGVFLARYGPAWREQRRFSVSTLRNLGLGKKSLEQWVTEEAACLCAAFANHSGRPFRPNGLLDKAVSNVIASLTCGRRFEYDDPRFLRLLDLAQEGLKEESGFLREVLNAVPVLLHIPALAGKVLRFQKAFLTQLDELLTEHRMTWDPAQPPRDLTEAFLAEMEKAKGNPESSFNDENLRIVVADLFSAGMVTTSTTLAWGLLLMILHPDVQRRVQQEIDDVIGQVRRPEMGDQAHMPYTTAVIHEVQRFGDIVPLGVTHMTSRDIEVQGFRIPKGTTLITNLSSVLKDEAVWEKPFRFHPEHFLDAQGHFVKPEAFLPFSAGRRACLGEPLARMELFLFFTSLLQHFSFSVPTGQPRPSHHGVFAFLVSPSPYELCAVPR
Description: CYP 2D6 was incubated with 10 μM concentrations of various known inhibitors and drug substrates and residual CYP 2D6 activity assayed with the fluorogenic substrate MOBFC. The assay was performed in a 96-well plate at room temp and at a volume of 100 μl/well. 4×enzyme buffer was prepared and 25 μl was added to each well on the plate, for final assay concentrations of 3.3 mM glucose-6-phosphate, 0.4 units/ml glucose-6-phosphate dehydrogenase and 10 mM MgCl2 in 100 mM K+ phosphate, pH 8.0. […] Six consecutive 1:3 dilutions were made and 50 μl of each was added to appropriate wells on the assay plate. The CYP2D6 was diluted to a solution of 2 pmol/10 μl in 100 mM K+ phosphate and 10 μl was added to each well. 20 μl of buffer was added to each well containing standard. The drug inhibitors were allowed to pre-incubated with the CYP 2D6 enzyme for 1 hr prior to the addition of the MOBFC substrate. […] Hydroxy-trifluoro-methylcoumarin was diluted to 100 μM in K+ phosphate buffer, and seven consecutive 1:2 dilutions were made. […] After addition of 10 μl of 13 mM NADP+ solutions to all wells the assay plate was placed into the fluorescence microtiter plate reader and fluorescence measured at 3 minute intervals for 60 minutes.

CYP2C9 = CYP2C9 (Homo sapiens, UniProt P11712); assay: Kinetic properties of substrate BOMF with CYP 2C9 (Tris-HCl buffer); type: biochemical
CYP3A4 [2] = molecular target: T1, CYP3A4; assay: Kinetic properties of fluorescein-based fluorogenic substrates with CYP 3A4; type: biochemical
Description: (§1) Dibenzylfluorescein (DBF) was purchased form Gentest, Woburn, Mass. […] DBF, BOMF and DBOMF were diluted from a stock solution of 2 mM in acetonitrile to a 4×concentration of 80 μM in 100 mM K+ phosphate buffer. Seven 1:2 dilutions were made of each substrate of which 25 μl was added to the appropriate wells. […] The cytochrome P450 isozyme CYP3A4 was diluted to give a 0.5 pmol enzyme per well and added in a volume of 10 μl/well in K+ phosphate, pH 8.0. Enzymatic conversion of the substrate to products was allowed to proceed for 1 hour with fluorescence reads taken every four minutes on a fluorescence microtiter plate reader. The solution was illuminated using an 485/20 nm excitation filter and fluorescence emission was detected through a 530/25 nm the emission filter.

CYP3A4 [3] = molecular target: T1, CYP3A4; assay: Kinetic properties of fluorogenic substrates with CYP 3A4; type: biochemical
Source text: For further understanding these terms in the context of this invention, attention is directed to FIG. 4 and the analysis of FIG. 4.
(respectively, MFC and MR).

CYP 2B6 = molecular target: T2, CYP 2B6 (Homo sapiens, UniProt P20813); assay: Kinetic properties of fluorogenic substrates with CYP 2B6; type: biochemical
T2 sequence (P20813 1-491): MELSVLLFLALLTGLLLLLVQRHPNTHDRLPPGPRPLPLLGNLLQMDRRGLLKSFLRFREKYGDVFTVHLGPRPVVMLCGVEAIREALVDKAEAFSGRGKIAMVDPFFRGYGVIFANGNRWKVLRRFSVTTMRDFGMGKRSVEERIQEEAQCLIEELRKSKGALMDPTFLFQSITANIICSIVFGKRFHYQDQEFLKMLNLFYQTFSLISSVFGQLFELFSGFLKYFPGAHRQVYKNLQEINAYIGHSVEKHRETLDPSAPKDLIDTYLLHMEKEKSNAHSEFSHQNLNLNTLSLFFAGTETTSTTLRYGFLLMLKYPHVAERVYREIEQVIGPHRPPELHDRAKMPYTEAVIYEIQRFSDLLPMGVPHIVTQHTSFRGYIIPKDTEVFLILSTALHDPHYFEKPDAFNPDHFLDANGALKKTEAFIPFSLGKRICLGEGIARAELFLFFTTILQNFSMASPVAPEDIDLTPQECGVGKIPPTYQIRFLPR

CYP3A4 [4] = molecular target: T1, CYP3A4; assay: Kinetics of BOMR and BR toward CYP 3A4 (FIG. 4); type: biochemical; conditions: from FIG. 4 data
Source text: Whichever of the four abstractable hydrogen atoms (designated H^1 and H^2 in this representation of BOMR) is removed in the initial reaction step, with reference to Reaction Scheme 1 of FIG. 1, the hydroxylation product will spontaneously decompose to the free resorufin dye. In addition, the benzyloxy group, attached to the carbon carrying the two hydrogens designated H^2, contributes an inductive electronic effect on that carbon, which can stabilize the radical formed during abstraction of one of the H^2 hydrogens by a cytochrome P450.
Optimization of assay conditions was, and is preferably, accomplished through statistically validated Design of Experiments methodologies, using the commercial software package “Design-Expert®” produced by Stat-Ease® Inc. The data shown in FIGS. 4 and 5 were obtained with initial optimization.

CYP3A4 [5] = molecular target: T1, CYP3A4
CYP3A4 [6] = molecular target: T1, CYP3A4; assay: in vitro; conditions: pH 8, % inhibition; for inhibition at 20 min, 10 µM: Condition A; for inhibition at 40 min, 10 µM: Condition B
[7] = substrate: O=C(OCc1ccccc1)c1ccccc1-c1c2ccc(=O)cc-2oc2cc(OCc3ccccc3)ccc12; assay: Kinetic properties of fluorescein-based fluorogenic substrates with CYP 2C8; type: biochemical, human; conditions: other: 100 mM K+ phosphate buffer, pH 7.5
Description: as §1
(§2) In deviation from the protocol described in Example 32, the phosphate-based buffer (100 mM K+ phosphate, pH 8.0) was replaced throughout the procedure by 100 mM K+ phosphate buffer, pH 7.5. […] Specifically, the substrate dibenzylfluorescein (DBF) (purchased form Gentest, Woburn, Mass.) and the sensor of the present invention DBOMF were tested for activity with CYP 2C8.

[8] = substrate: O=C(OCOCc1ccccc1)c1ccccc1-c1c2ccc(=O)cc-2oc2cc(OCOCc3ccccc3)ccc12; assay: as above; type: biochemical, human; conditions: other: 100 mM K+ phosphate buffer, pH 7.5
Description: as §1, §2

[9] = substrate: N#Cc1cc2ccc(OCOCc3ccccc3)cc2oc1=O; assay: Kinetic properties of fluorogenic substrates with CYP 2C9; type: biochemical, human; conditions: other: — = too low to quantify
[10] = substrate: COc1ccc(COc2ccc3nc4ccc(=O)cc-4oc3c2)cc1; assay: as above; type: biochemical, human; conditions: other: — = too low to quantify
[11] = substrate: CCCCCCCCOCOc1ccc2nc3ccc(=O)cc-3oc2c1; assay: as above; type: biochemical, human; conditions: other: — = too low to quantify
[12] = substrate: COc1ccc2cc(C#N)c(=O)oc2c1; assay: as above; type: biochemical, human; conditions: other: — = too low to quantify
[13] = substrate: COCOc1ccc2cc(C#N)c(=O)oc2c1; assay: as above; type: biochemical, human; conditions: other: — = too low to quantify
[14] = substrate: COc1ccc(COc2ccc3c(C(F)(F)F)cc(=O)oc3c2)cc1; assay: as above; type: biochemical, human; conditions: other: — = too low to quantify
[15] = substrate: O=C(O)c1ccccc1-c1c2ccc(=O)cc-2oc2cc(OCOCc3ccccc3)ccc12; assay: Kinetic properties of substrate BOMF with CYP 2C9 (Tris-HCl buffer); type: biochemical, human; conditions: other: 200 mM Tris-HCl buffer, pH 7.5
[16] = turnover rate at 1.25 uM substrate, — = too low to quantify
[17] = turnover rate at 10 uM substrate, — = too low to quantify

T1 sequence (P08684 whole entry): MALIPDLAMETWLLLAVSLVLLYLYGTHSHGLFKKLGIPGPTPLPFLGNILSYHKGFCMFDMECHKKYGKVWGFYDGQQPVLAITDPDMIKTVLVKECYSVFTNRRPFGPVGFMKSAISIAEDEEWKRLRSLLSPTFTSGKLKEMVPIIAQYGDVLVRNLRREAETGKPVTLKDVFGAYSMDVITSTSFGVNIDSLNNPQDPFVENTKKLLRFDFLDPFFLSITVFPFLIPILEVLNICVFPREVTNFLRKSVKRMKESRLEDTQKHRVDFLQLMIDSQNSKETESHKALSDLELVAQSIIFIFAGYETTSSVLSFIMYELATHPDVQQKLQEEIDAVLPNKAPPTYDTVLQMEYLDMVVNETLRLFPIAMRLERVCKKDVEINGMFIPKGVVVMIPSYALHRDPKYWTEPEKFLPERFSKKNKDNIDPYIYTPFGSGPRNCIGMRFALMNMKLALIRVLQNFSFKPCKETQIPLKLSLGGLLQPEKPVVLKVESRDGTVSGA

conversion rate (CYP3A4 [1]; 20 μM substrate, 37° C., 2 pmol enzyme per well): 0.75 pmol substrate/pmol enzyme·min
rate of conversion compared with BOMCC (CYP3A4 [1]; identical conditions): half that of BOMCC
Molecule: NC1CCCCC1NC(=O)c1cc2ccc(OCOCc3ccccc3)cc2oc1=O (racemic) [BOM-09B]

Molecule: CC[C@H]1[C@@H]2C[C@H]3[C@@H]4N(C)c5ccccc5[C@]45C[C@@H]([C@@H]2[C@H]5O)N3[C@@H]1O [Amjaline]
Ki (CYP2D6): > 30 µM

type of kinetics (CYP2C9): MichaelisMenten
v (1.25 uM) (CYP2C9; turnover rate at 1.25 uM substrate, 200 mM Tris-HCl buffer, pH 7.5): 1.28 min⁻¹
v (10 uM) (CYP2C9; turnover rate at 10 uM substrate, 200 mM Tris-HCl buffer, pH 7.5): 2.84 min⁻¹
type of kinetics (CYP3A4 [2]): MichaelisMenten
v (1.25 uM) (CYP3A4 [2]; turnover rate at 1.25 uM substrate, 100 mM K+ phosphate, pH 8.0): 0.53 min⁻¹
v (10 uM) (CYP3A4 [2]; turnover rate at 10 uM substrate, 100 mM K+ phosphate, pH 8.0): 3.40 min⁻¹
Molecule: O=C(O)c1ccccc1-c1c2ccc(=O)cc-2oc2cc(OCOCc3ccccc3)ccc12 [BOMF, Benzyloxymethylfluorescein]

type of kinetics (CYP3A4 [3]): Michaelis-Menten
v (1.25 uM) (CYP3A4 [3]; [16]): 0.02 min⁻¹
v (10 uM) (CYP3A4 [3]; [17]): 0.08 min⁻¹
type of kinetics (CYP 2B6): notMichaelis-Menten
v (1.25 uM) (CYP 2B6; [16]): 0.42 min⁻¹
v (10 uM) (CYP 2B6; [17]): 0.42 min⁻¹
turnover rate (kcat) (CYP3A4 [4]): 0.00167 s⁻¹
Km (CYP3A4 [4]; human, CYP 3A4 enzyme): 5.3 µM
Molecule: O=c1ccc2nc3ccc(OCc4ccccc4)cc3oc-2c1 [BR, Benzylresorufin, reference compound]

Molecule: CN(C)CCC(c1ccc(Cl)cc1)c1ccccn1 (stereo not drawn) [Chlorpheniramine]
Ki (CYP2D6): 2.5 µM

Molecule: COc1cccc2c1C(=O)c1c(O)c3c(c(O)c1C2=O)C[C@@](O)(C(=O)CO)C[C@@H]3O[C@H]1C[C@H](N)[C@H](O)[C@H](C)O1 [Doxorubicin]
Ki (CYP2D6): 8 µM
metabolism-dependent inhibitory activity against the CYP3A4 isozyme (CYP3A4 [5]): at least partial metabolism-dependent inhibitory activity
inhibition at 20 min, 10 µM (CYP3A4 [6]; substrate BOMCC): 81%
inhibition at 40 min, 10 µM (CYP3A4 [6]; substrate BOMCC): 79%
inhibition at 20 min, 10 µM (CYP3A4 [6]; substrate BOMR): 29%
inhibition at 40 min, 10 µM (CYP3A4 [6]; substrate BOMR): 72%
inhibition at 20 min, 10 µM (CYP3A4 [6]; substrate DBOMF): 3%
inhibition at 40 min, 10 µM (CYP3A4 [6]; substrate DBOMF): 33%

B1: CYP 2C8 (Homo sapiens) (protein)
chain: MEPFVVLVLCLSFMLLFSLWRQSCRRRKLPPGPTPLPIIGNMLQIDVKDICKSFTNFSKVYGPVFTVYFGMNPIVVFHGYEAVKEALIDNGEEFSGRGNSPISQRITKGLGIISSNGKRWKEIRRFSLTTLRNFGMGKRSIEDRVQEEAHCLVEELRKTKASPCDPTFILGCAPCNVICSVVFQKRFDYKDQNFLTLMKRFNENFRILNSPWIQVCNNFPLLIDCFPGTHNKVLKNVALTRSYIREKVKEHQASLDVNNPRDFIDCFLIKMEQEKDNQKSEFNIENLVGTVADLFVAGTETTSTTLRYGLLLLLKHPEVTAKVQEEIDHVIGRHRSPCMQDRSHMPYTDAVVHEIQRYSDLVPTGVPHAVTTDTKFRNYLIPKGTTIMALLTSVLHDDKEFPNPNIFDPGHFLDKNGNFKKSDYFMPFSAGKRICAGEGLARMELFLFLTTILQNFNLKSVDDLKNLNTTAVTKGIVSLPPSYQICFIPV
Km [7]: 2.0 µM
kcat [7]: 0.0067 s⁻¹
kcat/Km [7]: 3333 M⁻¹ s⁻¹
Km [8]: 3.6 µM
kcat [8]: 0.035 s⁻¹
kcat/Km [8]: 9722 M⁻¹ s⁻¹

B2: CYP 2C9 (Homo sapiens) (protein)
chain: MDSLVVLVLCLSCLLLLSLWRQSSGRGKLPPGPTPLPVIGNILQIGIKDISKSLTNLSKVYGPVFTLYFGLKPIVVLHGYEAVKEALIDLGEEFSGRGIFPLAERANRGFGIVFSNGKKWKEIRRFSLMTLRNFGMGKRSIEDRVQEEARCLVEELRKTKASPCDPTFILGCAPCNVICSIIFHKRFDYKDQQFLNLMEKLNENIKILSSPWIQICNNFSPIIDYFPGTHNKLLKNVAFMKSYILEKVKEHQESMDMNNPQDFIDCFLMKMEKEKHNQPSEFTIESLENTAVDLFGAGTETTSTTLRYALLLLLKHPEVTAKVQEEIERVIGRNRSPCMQDRSHMPYTDAVVHEVQRYIDLLPTSLPHAVTCDIKFRNYLIPKGTTILISLTSVLHDNKEFPNPEMFDPHHFLDEGGNFKKSKYFMPFSAGKRICVGEALAGMELFLFLTSILQNFNLKSLVDPKNLDTTPVVNGFASVPPFYQLCFIPV
Km [9]: 43.0 µM
kcat [9]: 0.035 s⁻¹
kcat/Km [9]: 814 M⁻¹ s⁻¹
Km [10]: 0.4 µM
kcat/Km [10]: 952 M⁻¹ s⁻¹
Km [11]: 2.6 µM
kcat [11]: 0.0067 s⁻¹
kcat/Km [11]: 2564 M⁻¹ s⁻¹
Km [12]: 70.9 µM
kcat [12]: 0.00667 s⁻¹
kcat/Km [12]: 85 M⁻¹ s⁻¹
Km [13]: 20 µM
kcat/Km [13]: 167 M⁻¹ s⁻¹
Km [14]: 7.7 µM
kcat [14]: 0.00483 s⁻¹
kcat/Km [14]: 628 M⁻¹ s⁻¹
Km [15]: 4.5 µM
kcat [15]: 0.075 s⁻¹
kcat/Km [15]: 16666 M⁻¹ s⁻¹
